According to patent US7612064B2, “Sulfopyrroles” (Takeda Pharmaceutical Company Limited, priority 2003, dated 2009):
One block for each compound: values may come before it.

Legend:
[1] = Hoechst 33342 nuclear staining; assay type: cell-based; conditions: for Hoechst 33342 nuclear staining score, H460: H460 cells; for Hoechst 33342 nuclear staining score, HeLa: HeLa cells; for Hoechst 33342 nuclear staining score, Jily: Jily cells; for Hoechst 33342 nuclear staining score, Jurkat: Jurkat cells; for Hoechst 33342 nuclear staining score, MRC5: MRC5 cells; as to Hoechst 33342 nuclear staining score, PBLs: key: 0: no activity; 1: weak activity comprising less than 50% of the cells; 2: strong activity comprising more than 50% of the cells;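 as to all read-outs here: apoptotic nuclei scored 0 none 1 weak under 50% of cells 2 strong over 50% of cells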
How it was run: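 Cells were plated in 96 well tissue culture plates in 80 μl complete medium, with 3-5*10^3 cells per well for adherent lines and 8-10*10^3 for suspension lines. Adherent cells spread for 24 h before treatment, while suspension cells were treated right after seeding. Compounds were added in 20 μl complete medium containing max 5% DMSO.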

HeLa = assay: MTS proliferation assay; assay type: cell-based, human; conditions: 72 h
How it was run: (§1)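 Cells exposed 72 h under culture conditions to compound at 10, 3, 1 and 0.3 μM final, added in medium with max 5% DMSO. MTS reagent then added for a further 3 h and absorbance read at 492 nm.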

Jurkat = assay: MTS proliferation assay; assay type: cell-based, human; conditions: 72 h
How it was run: as §1

MRC5 = assay: MTS proliferation assay; assay type: cell-based; conditions: MRC5, 72 h
How it was run: as §1

[2] = conc 0.1 (final concentrations in μM), 24 h or 48 h incubation
[3] = conc 0.3 (final concentrations in μM), 24 h or 48 h incubation
[4] = conc 1 (final concentrations in μM), 24 h or 48 h incubation
[5] = conc 3 (final concentrations in μM), 24 h or 48 h incubation

- IC50 (HeLa): > 1000 nM
- IC50 (Jurkat): < 1000 nM
SMILES: Cc1ccc(S(=O)(=O)n2cc(-c3ccc(C#N)cc3)cc2-c2cccs2)cc1 [Example 54]
- Hoechst 33342 nuclear staining score, H460 [1, 2]: 0
- Hoechst 33342 nuclear staining score, H460 [1, 3]: 0
- Hoechst 33342 nuclear staining score, H460 [1, 4]: 0
- Hoechst 33342 nuclear staining score, H460 [1, 5]: 0
- Hoechst 33342 nuclear staining score, HeLa [1, 2]: 0
- Hoechst 33342 nuclear staining score, HeLa [1, 3]: 0
- Hoechst 33342 nuclear staining score, HeLa [1, 4]: 0
- Hoechst 33342 nuclear staining score, HeLa [1, 5]: 0
- Hoechst 33342 nuclear staining score, Jily [1, 2]: 0
- Hoechst 33342 nuclear staining score, Jily [1, 3]: 0
- Hoechst 33342 nuclear staining score, Jily [1, 4]: 0
- Hoechst 33342 nuclear staining score, Jily [1, 5]: 0
- Hoechst 33342 nuclear staining score, Jurkat [1, 2]: 0
- Hoechst 33342 nuclear staining score, Jurkat [1, 3]: 0
- Hoechst 33342 nuclear staining score, Jurkat [1, 4]: 0
- Hoechst 33342 nuclear staining score, Jurkat [1, 5]: 0
- Hoechst 33342 nuclear staining score, MRC5 [1, 2]: 0
- Hoechst 33342 nuclear staining score, MRC5 [1, 3]: 0
- Hoechst 33342 nuclear staining score, MRC5 [1, 4]: 0
- Hoechst 33342 nuclear staining score, MRC5 [1, 5]: 0
- Hoechst 33342 nuclear staining score, PBLs [1, 2]: 0
- Hoechst 33342 nuclear staining score, PBLs [1, 3]: 0
- Hoechst 33342 nuclear staining score, PBLs [1, 4]: 0
- Hoechst 33342 nuclear staining score, PBLs [1, 5]: 0
- IC50 (MRC5): > 1000 nM

- IC50 (HeLa): > 1000 nM
- IC50 (Jurkat): > 1000 nM
SMILES: COc1cc(-c2cc(-c3cncc(C(=O)NCCC4CCCN4C)c3)cn2S(=O)(=O)c2ccc(C)cc2)cc(OC)c1OC.Cl (stereo not drawn) [Example 62]
- Hoechst 33342 nuclear staining score, H460 ([1]; conc 0.1): 0
- Hoechst 33342 nuclear staining score, H460 ([1]; conc 0.3): 0
- Hoechst 33342 nuclear staining score, H460 ([1]; conc 1): 0
- Hoechst 33342 nuclear staining score, H460 ([1]; conc 3): 0
- Hoechst 33342 nuclear staining score, HeLa ([1]; conc 0.1): 0
- Hoechst 33342 nuclear staining score, HeLa ([1]; conc 0.3): 0
- Hoechst 33342 nuclear staining score, HeLa ([1]; conc 1): 0
- Hoechst 33342 nuclear staining score, HeLa ([1]; conc 3): 0
- Hoechst 33342 nuclear staining score, Jily ([1]; conc 0.1): 0
- Hoechst 33342 nuclear staining score, Jily ([1]; conc 0.3): 0
- Hoechst 33342 nuclear staining score, Jily ([1]; conc 1): 0
- Hoechst 33342 nuclear staining score, Jily ([1]; conc 3): 0
- Hoechst 33342 nuclear staining score, Jurkat ([1]; conc 0.1): 0
- Hoechst 33342 nuclear staining score, Jurkat ([1]; conc 0.3): 0
- Hoechst 33342 nuclear staining score, Jurkat ([1]; conc 1): 0
- Hoechst 33342 nuclear staining score, Jurkat ([1]; conc 3): 2 (strong activity comprising more than 50% of the cells)
- Hoechst 33342 nuclear staining score, MRC5 ([1]; conc 0.1): 0
- Hoechst 33342 nuclear staining score, MRC5 ([1]; conc 0.3): 0
- Hoechst 33342 nuclear staining score, MRC5 ([1]; conc 1): 0
- Hoechst 33342 nuclear staining score, MRC5 ([1]; conc 3): 0
- Hoechst 33342 nuclear staining score, PBLs ([1]; conc 0.1): 0
- Hoechst 33342 nuclear staining score, PBLs ([1]; conc 0.3): 0
- Hoechst 33342 nuclear staining score, PBLs ([1]; conc 1): 0
- Hoechst 33342 nuclear staining score, PBLs ([1]; conc 3): 0
- IC50 (MRC5): > 1000 nM

- IC50 (HeLa): > 1000 nM
- IC50 (Jurkat): > 1000 nM
SMILES: COc1cc(-c2cc(-c3cncc(C(=O)O)c3)cn2S(=O)(=O)c2ccc(C)cc2)cc(OC)c1OC.N [Example 66]
- Hoechst 33342 nuclear staining score, H460 ([1]; conc 0.1): 0
- Hoechst 33342 nuclear staining score, H460 ([1]; conc 0.3): 0
- Hoechst 33342 nuclear staining score, H460 ([1]; conc 1): 0
- Hoechst 33342 nuclear staining score, H460 ([1]; conc 3): 0
- Hoechst 33342 nuclear staining score, HeLa ([1]; conc 0.1): 0
- Hoechst 33342 nuclear staining score, HeLa ([1]; conc 0.3): 0
- Hoechst 33342 nuclear staining score, HeLa ([1]; conc 1): 0
- Hoechst 33342 nuclear staining score, HeLa ([1]; conc 3): 0
- Hoechst 33342 nuclear staining score, Jily ([1]; conc 0.1): 0
- Hoechst 33342 nuclear staining score, Jily ([1]; conc 0.3): 0
- Hoechst 33342 nuclear staining score, Jily ([1]; conc 1): 0
- Hoechst 33342 nuclear staining score, Jily ([1]; conc 3): 0
- Hoechst 33342 nuclear staining score, Jurkat ([1]; conc 0.1): 0
- Hoechst 33342 nuclear staining score, Jurkat ([1]; conc 0.3): 0
- Hoechst 33342 nuclear staining score, Jurkat ([1]; conc 1): 0
- Hoechst 33342 nuclear staining score, Jurkat ([1]; conc 3): 0
- Hoechst 33342 nuclear staining score, MRC5 ([1]; conc 0.1): 0
- Hoechst 33342 nuclear staining score, MRC5 ([1]; conc 0.3): 0
- Hoechst 33342 nuclear staining score, MRC5 ([1]; conc 1): 0
- Hoechst 33342 nuclear staining score, MRC5 ([1]; conc 3): 0
- Hoechst 33342 nuclear staining score, PBLs ([1]; conc 0.1): 0
- Hoechst 33342 nuclear staining score, PBLs ([1]; conc 0.3): 0
- Hoechst 33342 nuclear staining score, PBLs ([1]; conc 1): 0
- Hoechst 33342 nuclear staining score, PBLs ([1]; conc 3): 0
- IC50 (MRC5): > 1000 nM

- IC50 (HeLa): < 1000 nM
- IC50 (Jurkat): < 1000 nM
SMILES: COc1cc(-c2cc(CNc3ccc(-n4cncn4)cc3)cn2S(=O)(=O)c2ccc(C)cc2)cc(OC)c1OC [Example 68]
- Hoechst 33342 nuclear staining score, H460 ([1]; conc 0.1): 0
- Hoechst 33342 nuclear staining score, H460 ([1]; conc 0.3): 0
- Hoechst 33342 nuclear staining score, H460 ([1]; conc 1): 2 (strong activity comprising more than 50% of the cells)
- Hoechst 33342 nuclear staining score, H460 ([1]; conc 3): 2 (strong activity comprising more than 50% of the cells)
- Hoechst 33342 nuclear staining score, HeLa ([1]; conc 0.1): 0
- Hoechst 33342 nuclear staining score, HeLa ([1]; conc 0.3): 0
- Hoechst 33342 nuclear staining score, HeLa ([1]; conc 1): 0
- Hoechst 33342 nuclear staining score, HeLa ([1]; conc 3): 2 (strong activity comprising more than 50% of the cells)
- Hoechst 33342 nuclear staining score, Jily ([1]; conc 0.1): 0
- Hoechst 33342 nuclear staining score, Jily ([1]; conc 0.3): 0
- Hoechst 33342 nuclear staining score, Jily ([1]; conc 1): 2 (strong activity comprising more than 50% of the cells)
- Hoechst 33342 nuclear staining score, Jily ([1]; conc 3): 2 (strong activity comprising more than 50% of the cells)
- Hoechst 33342 nuclear staining score, Jurkat ([1]; conc 0.1): 0
- Hoechst 33342 nuclear staining score, Jurkat ([1]; conc 0.3): 0
- Hoechst 33342 nuclear staining score, Jurkat ([1]; conc 1): 2 (strong activity comprising more than 50% of the cells)
- Hoechst 33342 nuclear staining score, Jurkat ([1]; conc 3): 2 (strong activity comprising more than 50% of the cells)
- Hoechst 33342 nuclear staining score, MRC5 ([1]; conc 0.1): 0
- Hoechst 33342 nuclear staining score, MRC5 ([1]; conc 0.3): 0
- Hoechst 33342 nuclear staining score, MRC5 ([1]; conc 1): 0
- Hoechst 33342 nuclear staining score, MRC5 ([1]; conc 3): 2 (strong activity comprising more than 50% of the cells)
- Hoechst 33342 nuclear staining score, PBLs ([1]; conc 0.1): 0
- Hoechst 33342 nuclear staining score, PBLs ([1]; conc 0.3): 0
- Hoechst 33342 nuclear staining score, PBLs ([1]; conc 1): 0
- Hoechst 33342 nuclear staining score, PBLs ([1]; conc 3): 0
- IC50 (MRC5): > 1000 nM

- IC50 (HeLa): > 1000 nM
- IC50 (Jurkat): < 1000 nM
SMILES: COc1cc(-c2cc(CNc3ccc4[nH]nnc4c3)cn2S(=O)(=O)c2ccc(C)cc2)cc(OC)c1OC [Example 69]
- Hoechst 33342 nuclear staining score, H460 ([1]; conc 0.1): 0
- Hoechst 33342 nuclear staining score, H460 ([1]; conc 0.3): 0
- Hoechst 33342 nuclear staining score, H460 ([1]; conc 1): 0
- Hoechst 33342 nuclear staining score, H460 ([1]; conc 3): 2 (strong activity comprising more than 50% of the cells)
- Hoechst 33342 nuclear staining score, HeLa ([1]; conc 0.1): 0
- Hoechst 33342 nuclear staining score, HeLa ([1]; conc 0.3): 0
- Hoechst 33342 nuclear staining score, HeLa ([1]; conc 1): 0
- Hoechst 33342 nuclear staining score, HeLa ([1]; conc 3): 2 (strong activity comprising more than 50% of the cells)
- Hoechst 33342 nuclear staining score, Jily ([1]; conc 0.1): 0
- Hoechst 33342 nuclear staining score, Jily ([1]; conc 0.3): 0
- Hoechst 33342 nuclear staining score, Jily ([1]; conc 1): 1 (weak activity comprising less than 50% of the cells)
- Hoechst 33342 nuclear staining score, Jily ([1]; conc 3): 2 (strong activity comprising more than 50% of the cells)
- Hoechst 33342 nuclear staining score, Jurkat ([1]; conc 0.1): 0
- Hoechst 33342 nuclear staining score, Jurkat ([1]; conc 0.3): 0
- Hoechst 33342 nuclear staining score, Jurkat ([1]; conc 1): 2 (strong activity comprising more than 50% of the cells)
- Hoechst 33342 nuclear staining score, Jurkat ([1]; conc 3): 2 (strong activity comprising more than 50% of the cells)
- Hoechst 33342 nuclear staining score, MRC5 ([1]; conc 0.1): 0
- Hoechst 33342 nuclear staining score, MRC5 ([1]; conc 0.3): 0
- Hoechst 33342 nuclear staining score, MRC5 ([1]; conc 1): 0
- Hoechst 33342 nuclear staining score, MRC5 ([1]; conc 3): 2 (strong activity comprising more than 50% of the cells)
- Hoechst 33342 nuclear staining score, PBLs ([1]; conc 0.1): 0
- Hoechst 33342 nuclear staining score, PBLs ([1]; conc 0.3): 0
- Hoechst 33342 nuclear staining score, PBLs ([1]; conc 1): 0
- Hoechst 33342 nuclear staining score, PBLs ([1]; conc 3): 0
- IC50 (MRC5): > 1000 nM
